Laboratory results from PMC1890308, “Anti-calmodulins and Tricyclic Adjuvants in Pain Therapy Block the TRPV1 Channel” (PLoS ONE, 2007).
Several values for one entry are separate records, joined by “and”; a condition that tells them apart may be missing. Equal values may be shown once.

Columns and labels:
rat TRPV1 = biological target: T1, rat TRPV1 (Rattus norvegicus, UniProt O35433); assay: capsaicin-induced 45Ca2+-uptake in TRPV1-NIH3T3 cells; assay type: cell-based
T1 construct: expressed in transfected cells
Protocol: Assays were carried out in 2×10^−5 M extracellular Ca^2+ in 96 well plate formats at room temperature (22°C) for 10 min with robotic liquid handling. […] We hypothesized that calmodulin antagonists and some registered drugs may exert their blocking effect with another mechanisms on TRPV1 and not necessarily on their conventional target.
TRPV1-NIH3T3 mouse fibroblast line, ectopically expressing the rat TRPV1 was established previously.
(§1) Vanilloid agonist inducible calcium transport was assayed in adherent cell lines ectopically expressing the C-terminally ε-tagged rat TRPV1 (3×10^4 cells/well) and primary cultures prepared from embryonic DRG, seeded in poly-D lysine/collagen coated 96 well plates. […] The previously established cell lines and standardized DRG cultures were extensively characterized for functional cell-based TRPV1 studies [1]–[4]. Immediately before the transport assay, cells were adapted to room temperature (20°C) for 5 min in HCM. ^45Ca^2+-uptake was performed for 10 min at 20°C in HCM using 0.1 µCi ^45Ca^2+ as radioactive tracer in a 100 µl final volume. To stop ^45Ca^2+-uptake, cells were rapidly changed back into 0.2 ml HCM, washed 4 additional times with 0.2 ml HCM, and then lysed in 80 µl/well RIPA buffer (50 mM Tris-HCl, pH 7.5, 150 mM NaCl, 1% Triton X-100, 0.5% deoxycholate, 0.1% SDS, 5 mM EDTA) for 30 min [1]–[4]. Aliquots of the solubilized cell extracts were mixed with 120 µl Microscint-40 and counted in a 96 well plate liquid scintillation counter (TopCount-NXT, Packard).

NMDA receptors = assay: NMDA-evoked responses of spinal dorsal horn neurons, microiontophoresis; assay type: in vivo; settings: anesthetized rat, iontophoresis, mean±SD, n = 16
Protocol: In another set of experiments, effects of calmidazolium were investigated on the responses of dorsal horn neurons evoked by NMDA and kainic acid agonists of different glutamate receptors, well characterized transducers of pain signals, more centrally. Neuronal firing responses to iontophoresed NMDA or kainic acid were typically fast in onset and short in duration (Fig. 8). Ejection currents for these excitatory agents were delivered alternately in every 2 min and were selected to produce a maximal peak height of 50–70 spikes/s which corresponded to 300–400 action potentials per stimulation epoch. Iontophoretic application of calmidazolium produced significant reduction in responses to both NMDA and kainic acid. Maximal inhibition of NMDA- or kainic acid -evoked responses were reached 15–20 min after calmidazolium application and remained so during the rest of the 2 hour long experiment. […]
Extracellular single-neuron recordings were made in chloral hydrate-anesthetized ([…] initial dose, i.p., with supplemental doses as required) male Wistar rats weighing between 350–450 g. […] Rectal temperature as well as the temperature of the mineral oil were monitored with temperature probes and kept at 37°C by a warm water-heated blanket beneath the rat and an infrared heat lamp from above. […]

[1] = system: intermediate Ca2+-activated K+ channels (IKCa); settings: human erythrocytes; cited from earlier work
formalin-induced pain = system: formalin-induced pain; design: method as in PMID 8883861; settings: rat, intrathecal; cited from earlier work
TRPV1 = TRPV1 (Rattus norvegicus, UniProt O35433); assay: capsaicin-induced 45Ca2+-uptake in primary rat embryonic DRG cultures; assay type: cell-based; design: sensory neurons, expressing TRPV1 endogenously; endogenous in cells; host or cells: primary cultures of embryonic rat dorsal root ganglia (E14, E16)
Protocol: Primary cultures were prepared from embryonic (E14) rat DRGs. Along with calmidazolium other polycyclic compounds were included in the vanilloid-induced ^45Ca^2+-transport assays.
Primary DRG cultures were prepared from E16 embryonic rats as described previously then plated in 15 cm Petri dishes for 4 h to remove the most adherent fibroblasts. For Ca^2+-uptake studies primary afferents neurons cultured in 96 well plates (3×10^3 cells/well), coated with poly-D lysine/collagen, which yielded both axons and dendrites bearing neurons due to neuronal growth factor supplementation in the culture medium [1]–[4]. The dendrites are large processes branching from the cell body that taper in diameter further from the cell body. The axons are a constant diameter and project over long distances from the cell body. Before the ion transport experiment, culture medium was removed and cells were washed three times. ^45Ca-uptake assays were carried out in “nominally zero Ca^2+” (i.e. 2×10^−5 M extracellular Ca^2+ ([Ca^2+]o) in 25 mM Tris-HCl buffered Hanks' balanced salt solution (pH 7.5), supplemented with 10 µM CaCl2 and 0.8 mM MgCl2medium (HCM) [1]–[4].
as §1

[2] = increasing concentrations of capsaicin

T1 sequence (O35433 whole entry): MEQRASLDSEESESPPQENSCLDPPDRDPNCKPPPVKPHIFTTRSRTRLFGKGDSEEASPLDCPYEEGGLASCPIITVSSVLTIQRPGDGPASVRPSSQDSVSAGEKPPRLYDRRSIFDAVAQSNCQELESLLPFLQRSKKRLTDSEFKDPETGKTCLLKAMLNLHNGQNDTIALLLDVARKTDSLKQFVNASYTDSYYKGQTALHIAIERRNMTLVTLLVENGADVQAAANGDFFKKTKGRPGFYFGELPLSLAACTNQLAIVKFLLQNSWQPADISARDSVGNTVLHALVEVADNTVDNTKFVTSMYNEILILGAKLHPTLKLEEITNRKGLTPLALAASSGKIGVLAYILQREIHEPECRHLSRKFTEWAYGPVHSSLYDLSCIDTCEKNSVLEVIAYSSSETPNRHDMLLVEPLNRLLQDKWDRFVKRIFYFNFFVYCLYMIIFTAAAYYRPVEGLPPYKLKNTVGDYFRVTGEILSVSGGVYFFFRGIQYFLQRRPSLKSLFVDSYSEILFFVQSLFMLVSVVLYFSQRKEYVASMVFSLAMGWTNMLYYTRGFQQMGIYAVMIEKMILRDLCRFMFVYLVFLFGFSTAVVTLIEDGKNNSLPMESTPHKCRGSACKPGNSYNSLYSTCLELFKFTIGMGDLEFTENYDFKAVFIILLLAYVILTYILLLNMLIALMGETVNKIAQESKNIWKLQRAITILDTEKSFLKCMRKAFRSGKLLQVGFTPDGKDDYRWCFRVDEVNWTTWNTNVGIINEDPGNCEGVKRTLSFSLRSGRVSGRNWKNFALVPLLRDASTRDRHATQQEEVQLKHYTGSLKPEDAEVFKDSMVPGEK
TRPV1, sequence (O35433 whole entry): as above

Compound: Clc1ccc(C(c2ccc(Cl)cc2)n2cc[n+](CC(OCc3ccc(Cl)cc3Cl)c3ccc(Cl)cc3Cl)c2)cc1 (stereo not drawn) [calmidazolium]
- antagonist activity on capsaicin-induced Ca2+-uptake (in words) (rat TRPV1; 2 µM capsaicin): full antagonists
- IC50 (rat TRPV1; 2 µM capsaicin, 10 min, 2×10^−5 M extracellular Ca2+, room temperature, read-out: IC50, inhibition of capsaicin-induced 45Ca2+-uptake): 7000 nM and ~2000 nM
- concentration above which Ca2+-transport was almost completely abolished (rat TRPV1; [2]): > 2.5 µM
- kinetics of Ca2+-transport inhibition (rat TRPV1; [2]): decreased Vmax
- responses to NMDA, % of pre-calmidazolium baseline control (NMDA receptors): 13±12%
- activity on IKCa channels (in words) [1]: inactive
- analgesia in both phases of formalin tests (formalin-induced pain): analgesic
- fold higher potency in DRG cultures (TRPV1; DRG cultures vs TRPV1-NIH3T3 cells / other compounds (comparator unclear)): ~3 fold
- IC50 (TRPV1; rat embryonic DRG sensory neuron cultures, 2 µM capsaicin, read-out: IC50, inhibition of capsaicin-induced Ca2+-uptake): 600 nM and ~600 nM
